Measurements as given in patent US10350211B2, “Bumped kinase inhibitor compositions and methods for treating cancer” (UNIVERSITY OF WASHINGTON, priority 2015, dated 2019).

How the values were obtained:
[1] = therapeutic levels cannot be obtained in vivo; cited from earlier work
[2] = cited from earlier work
[3] = system: other human kinases beyond PKDs, including mutated Src; details: cited from earlier work
[4] = system: prostate cancer AR− as well as AR+ lines; details: cited from earlier work
PKD = details: cited from earlier work
MCF7 cell = experiment: Breast cancer cell proliferation, MCF7; assay type: cell-based; details: 72 hours; tested at 0.2, 2, and 20 μM, concentration of the values not given
Protocol: (§1) MCF7 and MDA231 cell lines were plated at 2000 and 1000 cells/well, respectively. 24 hours later, BKI inhibitor of the disclosure was added to each well at concentrations of 0.2, 2, and 20 μM. After 72 hours, […] was used to measure cell growth.

MDA231 cell = experiment: Breast cancer cell proliferation, MDA231; assay type: cell-based; details: 72 hours; tested at 0.2, 2, and 20 μM, concentration of the values not given
Protocol: as §1

PCa tumor = details: 60 mg/kg, 2× daily; cited from earlier work

SMILES	MCF7 cell inhibition (%) (MCF7 cell)	MDA231 cell inhibition (%) (MDA231 cell)	also measured
CC(C)(C)n1nc(-c2cccc3ccccc23)c2c(N)ncnc21 [Example 1NA-PP1]	–	–	metabolism [1]: quickly metabolized; solubility [2]: low solubility; off-target kinases [3]: target other human kinases beyond PKDs, including mutated Src; prostate cancer cell growth/proliferation [4]: potently blocked; PKD kinase activity (PKD): potently blocked
CC(C)(C)n1nc(Cc2cccc3ccccc23)c2c(N)ncnc21 [Example 1NM-PP1]	–	–	metabolism [1]: quickly metabolized; solubility [2]: low solubility; off-target kinases [3]: target other human kinases beyond PKDs, including mutated Src; prostate cancer cell growth/proliferation [4]: potently blocked; PKD kinase activity (PKD): potently blocked
CN1CCC(Cn2nc(-c3ccc4cc(OC5CC5)ccc4c3)c3c(N)ncnc32)CC1 [Example 4, 3-(6-Cyclopropoxynaphthalen-2-yl)-1-((1-methylpiperidin-4-yl)methyl)-1H-pyrazolo[3,4-d]pyrimidin-4-amine]	50	60	–
CCOc1ccc2cc(-c3nn(CC4CCN(C)CC4)c4ncnc(N)c34)ccc2n1 [Example 15, 3-(2-Ethoxyquinolin-6-yl)-1-((1-methylpiperidin-4-yl)methyl)-1H-pyrazolo[3,4-d]pyrimidin-4-amine]	40	30	–
CN1CCC(Cn2nc(-c3ccc4nc(OCC(F)(F)F)ccc4c3)c3c(N)ncnc32)CC1 [Example 16, 1-((1-Methylpiperidin-4-yl)methyl)-3-(2-(2,2,2-trifluoroethoxy)quinolin-6-yl)-1H-pyrazolo[3,4-d]pyrimidin-4-amine]	50	90	–
CC(C)(O)Cn1nc(-c2ccc3nc(OC4CC4)ccc3c2)c2c(N)ncnc21 [Example 25, 1-(4-Amino-3-(2-cyclopropoxyquinolin-6-yl)-1H-pyrazolo[3,4-d]pyrimidin-1-yl)-2-methylpropan-2-ol]	30	20	–
CCOc1ccc2ccc(-c3nn(CC4CCNCC4)c4ncnc(N)c34)cc2c1 [Example 51, 3-(7-ethoxynaphthalen-2-yl)-1-(piperidin-4-ylmethyl)-1H-pyrazolo[3,4-d]pyrimidin-4-amine]	97	95	–
CC(C)(O)Cn1cc(-c2ccc3nc(OC4CC4)ccc3c2)c2c(N)ncnc21 [Example 58, 1-(4-amino-5-(2-cyclopropoxyquinolin-6-yl)-7H-pyrrolo[2,3-d]pyrimidin-7-yl)-2-methylpropan-2-ol]	50	10	–
Nc1ncnc2c1c(-c1ccc3nc(OC4CC4)ccc3c1)nn2CC1(CO)COC1 [Example 67, (3-((4-amino-3-(2-cyclopropoxyquinolin-6-yl)-1H-pyrazolo[3,4-d]pyrimidin-1-yl)methyl)oxetan-3-yl)methanol]	40	0	–
CCOc1ccc2cc(-c3nn(C4CCN(CC)CC4)c4ncnc(N)c34)ccc2c1 [Example 109, 3-(6-ethoxynaphthalen-2-yl)-1-(1-ethylpiperidin-4-yl)-1H-pyrazolo[3,4-d]pyrimidin-4-amine]	50	50	–
CCOc1ccc2cc(-c3nn(C(C)C)c4ncnc(N)c34)ccc2n1 [Example 110, 3-(2-ethoxyquinolin-6-yl)-1-isopropyl-1H-pyrazolo[3,4-d]pyrimidin-4-amine]	30	10	–
CCOc1ccc2cc(-c3nn(C4CCNCC4)c4ncnc(N)c34)ccc2c1 [Example 111, 3-(6-ethoxynaphthalen-2-yl)-1-(piperidin-4-yl)-1H-pyrazolo[3,4-d]pyrimidin-4-amine]	70	90	–
CCOc1ccc2cc(-c3nc(CC4CCNCC4)n4ccnc(N)c34)ccc2c1 [Example 120, 1-(6-ethoxynaphthalen-2-yl)-3-(piperidin-4-ylmethyl)imidazo[1,5-a]pyrazin-8-amine]	30	50	–
CCOc1ccc2cc(-c3nn(CC4CCNCC4)c4ncnc(N)c34)ccc2n1 [Example 127, 3-(2-ethoxyquinolin-6-yl)-1-(piperidin-4-ylmethyl)-1H-pyrazolo[3,4-d]pyrimidin-4-amine]	50	0	–
CCOc1ccc2cc(-c3nn(CC4CCN(C)CC4)c4ncnc(N)c34)ccc2c1 [Example 128]	40	50	–
CCCOc1ccc2cc(-c3nn(CC4CCNCC4)c4ncnc(N)c34)ccc2c1 [Example 129, 1-(piperidin-4-ylmethyl)-3-(6-propoxynaphthalen-2-yl)-1H-pyrazolo[3,4-d]pyrimidin-4-amine]	75	90	–
CC(C)Oc1ccc2cc(-c3nn(CC4CCNCC4)c4ncnc(N)c34)ccc2c1 [Example 130, 3-(6-isopropoxynaphthalen-2-yl)-1-(piperidin-4-ylmethyl)-1H-pyrazolo[3,4-d]pyrimidin-4-amine]	30	80	–
Fc1ccc(Cl)cc1-c1nc(Nc2ccncc2)c2nccnc2n1 [SD-208]	–	–	PCa tumor growth (PCa tumor): decrease in PCa tumor growth; prostate cancer cell growth/proliferation [4]: potently blocked; PKD kinase activity (PKD): potently blocked
